Like-named read-outs stand apart in the source and are kept apart here. Where a SMILES comes first, the peptide text is derived from it. Bridges are numbered along the chain shown (N, C = ends). Where no end group is shown, it is not given here. The star is where a group is joined. Glutaryl(5-(14-O-Dox)) = COc1cccc2c1C(=O)c1c(O)c3c(c(O)c1C2=O)C[C@@](O)(C(=O)COC(=O)CCCC(=O)*)C[C@@H]3O[C@H]1C[C@H](N)[C@H](O)[C@H](C)O1

In one series the target is T1, MMP-2 (Mus musculus, UniProt P33434).
T1 construct: 4 mL of the medium containing active MMP-2 (i.e. conditioned medium) was collected and concentrated; endogenous in cells; host or cells: NIH-3T3 fibroblasts; serum-free conditioned medium concentrated with a 10 K centrifugal filter
T1 sequence (P33434 110-662): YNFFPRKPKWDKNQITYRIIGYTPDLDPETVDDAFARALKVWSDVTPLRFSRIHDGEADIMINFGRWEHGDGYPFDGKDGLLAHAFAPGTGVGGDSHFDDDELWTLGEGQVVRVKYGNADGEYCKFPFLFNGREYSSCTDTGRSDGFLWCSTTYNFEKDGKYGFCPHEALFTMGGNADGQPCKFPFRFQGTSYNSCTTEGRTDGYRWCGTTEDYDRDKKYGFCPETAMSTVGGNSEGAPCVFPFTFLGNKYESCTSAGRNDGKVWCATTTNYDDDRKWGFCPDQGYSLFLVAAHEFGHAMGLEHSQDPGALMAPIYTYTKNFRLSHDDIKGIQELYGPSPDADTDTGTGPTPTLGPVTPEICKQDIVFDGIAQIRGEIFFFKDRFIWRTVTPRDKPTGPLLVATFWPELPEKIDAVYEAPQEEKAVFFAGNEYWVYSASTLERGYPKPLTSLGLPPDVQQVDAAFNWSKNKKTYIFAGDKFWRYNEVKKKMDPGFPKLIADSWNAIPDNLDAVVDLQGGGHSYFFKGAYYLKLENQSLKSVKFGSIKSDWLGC
Description: Enzymatic cleavage of MAHNP-DOX by MMP-2 in NIH-3T3 conditioned medium. The format is in vitro ADME. The note with it: 5 μM MAHNP-DOX in concentrated conditioned medium from NIH-3T3 cells containing active MMP-2, 37 °C, 2 h of incubation, HPLC / LC-MS/MS. As for the experimental part: NIH-3T3 cells that can secrete active MMP-2 (Figure S1) were cultured in serum-free medium for 24 h. Then, 4 mL of the medium containing active MMP-2 (i.e. conditioned medium) was collected and concentrated to 500 μL using Amicon Ultra-4 10 K centrifugal filter devices (Millipore, Bedford, MA, USA) (Aye et al., [2004]). Dilution of MAHNP-DOX at a concentration of 5 μM was prepared with the concentrated conditioned medium and incubated at 37 °C. Aliquots were removed at 1 h and 2 h and then analyzed by LC–MS/MS (van Duijnhoven et al., [2011]). The analysis was performed on XBridge™ C18 column (5 μm, 4.6 × 250 mm; Waters, Milford, MA, USA) at room temperature. The flow rate of HPLC was 0.3 mL/min with a mobile phase consisted of solvent A (water with 0.1% FA) and solvent B (ACN). The gradient was as follows: B 0 min (10%) → 15 min (90%) → 20 min (90%) → 25 min (10%).
The sensitivity of MAHNP-DOX to MMP-2 was studied using HPLC. To date, there has been substantial evidence indicating stronger signals for MMP-2 in stromal cells compared to cancer cells, while stromal fibroblasts interact with cancer cells by secreting and activating MMP-2 (Saad et al., [2002]; Hassona et al., [2014]). […] Thus, the peaks for MAHNP-DOX and one product after cleavage of GLPG-DOX were monitored. […]

Series [1] concerns BT474 cells. Description: MTT cytotoxicity assay, BT474 cells. The format is cell-based, human. As for the experimental part:
(§1) The cytotoxicity of MAHNP-DOX was determined using MTT test. Free DOX was used as positive control, and the cells treated with conditioned medium only were considered as negative control. BT474 and SKBR3 cells in exponential growth were seeded in a 96-well plate and incubated for 24 h at 37 °C. Then, a series of dilutions of free DOX and MAHNP-DOX at equivalent concentration were prepared with the conditioned medium and incubated for another 48 h. After an addition of MTT solution (5 mg/ml in PBS) to each well, the cells were incubated for 4 h and lysed in DMSO. Absorbance was determined at 490 nm using an EL ×800 absorbance microplate reader (Biotek, Winooski, VT, USA). The IC50 values were calculated from the linear regression of the dose–log response curves using GraphPad Prism 6 software (GraphPad Software, San Diego, CA, USA).
(§2) To further confirm the dependence of cytotoxicity on MMP-2 activity, NIH-3T3 cells were pre-incubated with 10 μM MMP-2 inhibitor I in serum-free medium for 24 h, and the medium was also collected termed as treated conditioned medium. Following the procedure above, the cytotoxicity of MAHNP-DOX was also determined using this medium.
In general terms: Formazan colour is commonly taken as a measure of viable cells.

Series [2] concerns SKBR3 cells. Description: MTT cytotoxicity assay, SKBR3 cells. The format is cell-based, human. The protocol: as §1, §2
The test system of the next series is BT474 xenografts. The note with it: nude mice with BT474 xenografts, 5 mg DOX equivalent/kg once every seven days for three times. The protocol: Eighteen athymic nude mice (Balb/c nu/nu, females) were used. All animal experiments were carried out in accordance with guidelines evaluated and approved by the ethics committee of Nanjing Medical University. BT474 cells were first collected in a concentration of 1 × 10^7/mL and orthotopically injected into the mammary fat pad area of each mouse with 0.1 mL PBS/mouse.
(§3) When the tumor size reached a volume of about 50 mm^3, the mice were randomly divided into three groups (each group consisted of 6 mice) for the treatment with 5 mg DOX equivalent/kg of either free DOX or MAHNP-DOX once every seven days for three times. Saline was used as negative control. The animals’ weight and tumor dimensions were measured every five days. Tumor volume was calculated using an equation: TV =1/2 × a × b^2, where a is the largest diameter and b is the smallest diameter. Each animal was tagged in the ear and followed individually throughout the experiment. For in vivo imaging study, the mice were intravenously injected through the caudal vein by 5 mg DOX equivalent/kg of free DOX and MAHNP-DOX, images were taken on IVIS LuminaXR imaging system (Perkin Elmer, San Diego, CA, USA) at 4 h post injection. Tumors and organ samples including heart, liver, spleen, kidneys and lungs were carefully removed and stored in liquid nitrogen. To assess the pharmacokinetic profile of the drugs, free DOX and MAHNP-DOX were injected intravenously into the mice, respectively. Blood samples were collected at 0.083, 0.25, 0.5, 1, 2, 4, 8, 12 and 24 h post injection.

Series [3] is described as follows: Pharmacokinetic profile in plasma of mice. The note with it: intravenous injection, blood 0.083-24 h post injection, LC-MS/MS, n = 3. As for the experimental part:
as §3

Series [4] in a line: Biodistribution in BT474 tumor-bearing mice by fluorescent imaging and HPLC. The format is in vivo. The note with it: 4 h after intravenous injection, 5 mg DOX equivalent/kg. An excerpt: Saline was used as negative control.
Daunorubicin (DAU) was used as internal standard.

The test system of series [5] is BT474 cells. Description: TUNEL assay, BT474 cells. The format is cell-based, human. The note with it: 24 h treatment, n = 3. As for the experimental part: (§4) Transferase-mediated nick-end labeling assay was carried out using the DeadEnd Fluorometric TUNEL system kit (Promega, Madison, WI, USA). […] Images were acquired at room temperature with an inverted fluorescence microscope (Leica, DMI3000B, Wetzlar, Germany).

Series [6] has as its system SKBR3 cells. The series is described as follows: TUNEL assay, SKBR3 cells. The note with it: 24 h treatment, n = 3. The format is cell-based, human. The protocol:
as §4

In series [7] the target is human epidermal growth factor receptor family member HER2 (human (endogenous in BT474 and SKBR3)) (UniProt P04626).
The mark [8] stands for this setting: 48 h, in conditioned medium, n = 3, read-out: IC50.
Where [9] appears, read: conditioned medium from NIH-3T3 cells pretreated with 10 μM MMP-2 inhibitor I, n = 3, read-out: IC50 with MMP-2 inhibitor pretreatment.

Molecule `COc1cccc2c1C(=O)c1c(O)c3c(c(O)c1C2=O)C[C@@](O)(C(=O)COC(=O)CCCC(=O)NCC(=O)N1CCC[C@H]1C(=O)N[C@@H](CC(C)C)C(=O)NCC(=O)N[C@@H](CC(C)C)C(=O)N[C@@H](C)C(=O)NCC(=O)N[C@@H](CC(=O)O)C(=O)N[C@@H](CC(=O)O)C(=O)N[C@@H](Cc1ccc(O)cc1)C(=O)N[C@H]1CSSC[C@@H](C(=O)N[C@@H](Cc2ccc(O)cc2)C(=O)N[C@@H](CCSC)C(=O)N[C@@H](CC(=O)O)C(=O)N[C@H](C(N)=O)C(C)C)NC(=O)[C@H](C)NC(=O)[C@H](Cc2ccc(O)cc2)NC(=O)[C@H](Cc2ccccc2)NC(=O)CNC(=O)[C@H](CC(=O)O)NC1=O)C[C@@H]3O[C@H]1C[C@H](N)[C@H](O)[C@H](C)O1` [MAHNP-DOX] ({Glutaryl(5-(14-O-Dox))}-GPLGLAGDDYCDGFYACYMDV-NH2; disulfide 11-17) displayed an efficiency of cleavage with MMP-2 of 80.8%. Besides, the IC50 (in general, the concentration that gives 50% inhibition) in the series on BT474 cells [1] (setting [8]) was determined as 747 ± 81.5 nM; with BT474 cells [1] (setting [9]), 1350 ± 154 nM; with SKBR3 cells [2] (setting [8]) it was 110 ± 12.7 nM; in the series on SKBR3 cells [2] (setting [9]), 147 ± 16.3 nM. For the same molecule, the “toxicity / body weight change” value in the series on BT474 xenografts was “less weight loss”. Moreover, the “half-life t1/2 in plasma” value in series [3] stood at 17.6 ± 6.4 h. For the same molecule, in series [4] (fluorescent images confirmed by HPLC, p < .01), the “drug amount in the tumors compared with free DOX” value was “significantly higher”. Moreover, the “drug accumulation in heart, liver, spleen, lung and kidney compared with free DOX” value in [4] (p < .05) is “lower”.
In the case of `COc1cccc2c1C(=O)c1c(O)c3c(c(O)c1C2=O)C[C@@](O)(C(=O)CO)C[C@@H]3O[C@H]1C[C@H](N)[C@H](O)[C@H](C)O1.Cl` [free DOX, Doxorubicin hydrochloride], the 50% inhibitory concentration (IC50) in the series on BT474 cells [1] (setting [8]) worked out at 2080 ± 368 nM; in the series with SKBR3 cells [2] (setting [8]), 173 ± 19.2 nM. Moreover, the “percentage of apoptotic cells” value with BT474 cells [5] was 34.2 ± 2.1%; in the series with SKBR3 cells [6], 44.8 ± 2.8%. Moreover, in the series with BT474 xenografts (day 25 after treatment), the tumor growth inhibition was 53.4 ± 6.6%. For the same molecule, the “toxicity / body weight change” value in the series on BT474 xenografts is given as “Toxicity was observed”. The “half-life t1/2 in plasma” value in series [3] is 7.7 ± 1.6 h.
Regarding YCDGFYACYMDV-NH2 (disulfide 2-8) [anti-HER2 peptide mimetic AHNP], in series [7], the increase of the cell population in the G1 phase, BT474 cells, 48 h exposure to AHNP (10 μM) alone, flow cytometry worked out at 6.58% and the increase of the cell population in the G1 phase, SKBR3 cells, 48 h exposure to AHNP (10 μM) alone, flow cytometry was 9.95%.

The record behind these values is article PMC6058718, “Doxorubicin conjugated with a trastuzumab epitope and an MMP-2 sensitive peptide linker for the treatment of HER2-positive breast cancer” (Drug Delivery, 2018).
